Results: ChEMBL document CHEMBL5108024, “New C-6 functionalized quinoline NorA inhibitors strongly synergize with ciprofloxacin against planktonic and biofilm growing resistant Staphylococcus aureus strains” (Eur J Med Chem, 2022)
≈ marks a conversion by molar mass, not a printed value. Where “and” joins values, the source holds several entries; their conditions need not be identical. Equal entries are not always repeated. Calls of active or inactive are those of the source. The calls are words filed in the database; no cut-off is given here.

Experiments:
Staphylococcus aureus [1] = assay: Synergistic antibiofilm activity against wild type Staphylococcus aureus 1199 assessed as biofilm eradication by measuring ciprofloxacin MBEC at 3.13 ug/ml incubated for 24 hrs by Calgary biofilm device assay; assay type: functional; details: dose 3.13 µg/ml
Staphylococcus aureus [2] = assay: Inhibition of EtBr efflux in ciprofloxacin-resistant Staphylococcus aureus 1199B overexpressing norA and harboring A116E grlA mutant assessed as reduction in fluorescence intensity at 50 uM measured for 5 mins by microplate reader analysis relative to control; assay type: functional
Staphylococcus aureus [3] = assay: Inhibition of EtBr efflux in ciprofloxacin-resistant Staphylococcus aureus 1199B overexpressing norA and harboring A116E grlA mutant assessed as reduction in fluorescence intensity at 10 uM measured for 5 mins by microplate reader analysis relative to control; assay type: functional
Staphylococcus aureus [4] = assay: Antibacterial activity against ciprofloxacin-susceptible wild type Staphylococcus aureus 1199 assessed as inhibition of bacterial growth by broth microdilution method; assay type: functional
Staphylococcus aureus [5] = assay: Synergistic antibiofilm activity against Staphylococcus aureus 1199B overexpressing norA and harboring A116E grlA mutant assessed as biofilm eradication by measuring ciprofloxacin MBEC at 3.13 ug/ml incubated for 24 hrs by Calgary biofilm device assay; assay type: functional; details: dose 3.13 µg/ml
Staphylococcus aureus [6] = assay: Synergistic antibacterial activity against Staphylococcus aureus 1199B overexpressing norA and harboring A116E grlA mutant assessed as eight fold minimum potentiating concentration incubated in presence of ciprofloxacin by checkerboard assay; assay type: functional
Staphylococcus aureus [7] = assay: Antibacterial activity against ciprofloxacin-resistant Staphylococcus aureus 1199B overexpressing norA and harboring A116E grlA mutant assessed as inhibition of bacterial growth by broth microdilution method; assay type: functional
Staphylococcus aureus [8] = assay: Synergistic antibacterial activity against ciprofloxacin-resistant Staphylococcus aureus 1199B overexpressing norA and harboring A116E grlA mutant assessed as fold reduction in ciprofloxacin MIC at 6.25 uM by broth microdilution method; assay type: functional
[9] = Cytotoxicity against human THP-1 cells assessed as cell viability at 12.5 ug/ml incubated for 24 hrs by MTT assay relative to control; assay type: toxicity, cell-based; details: at 12.5 µg/mL, read-out: Activity
Staphylococcus aureus [10] = assay: Antibacterial activity against norA deleted Staphylococcus aureus K1902 assessed as inhibition of bacterial growth by broth microdilution method; assay type: functional
[11] = Cytotoxicity against human THP-1 cells assessed as cell viability incubated for 24 hrs by MTT assay; assay type: toxicity, cell-based
Staphylococcus aureus [12] = assay: Synergistic antibiofilm activity against Staphylococcus aureus 1199B overexpressing norA and harboring A116E grlA mutant assessed as biofilm eradication by measuring fold reduction in ciprofloxacin MBEC at 3.13 ug/ml incubated for 24 hrs by Calgary biofilm device assay; assay type: functional; details: dose 3.13 µg/ml
[13] = Cytotoxicity against human A549 cells assessed as cell viability at 12.5 ug/ml incubated for 24 hrs by MTT assay relative to control; assay type: toxicity, cell-based; details: at 12.5 µg/mL, read-out: Activity
Staphylococcus aureus [14] = assay: Synergistic antibiofilm activity against wild type Staphylococcus aureus 1199 assessed as biofilm eradication by measuring fold reduction in ciprofloxacin MBEC at 3.13 ug/ml incubated for 24 hrs by Calgary biofilm device assay; assay type: functional; details: dose 3.13 µg/ml
[15] = Cytotoxicity against human A549 cells assessed as cell viability at 3.13 ug/ml incubated for 24 hrs by MTT assay relative to control; assay type: toxicity, cell-based; details: at 3.13 µg/mL, read-out: Activity
Staphylococcus aureus [16] = assay: Synergistic antibacterial activity against Staphylococcus aureus K2378 overexpressing norA assessed as fold reduction in ciprofloxacin MIC at 0.2 to 12.5 ug/ml by checkerboard assay; assay type: functional; details: dose 0.2-12.5 µg/ml
[17] = Cytotoxicity against human THP-1 cells assessed as cell viability at 3.13 ug/ml incubated for 24 hrs by MTT assay relative to control; assay type: toxicity, cell-based; details: at 3.13 µg/mL, read-out: Activity
Staphylococcus aureus [18] = assay: Antibacterial activity against Staphylococcus aureus K2378 harbouring norA promoting and coding region assessed as inhibition of bacterial growth by broth microdilution method; assay type: functional
Staphylococcus aureus [19] = assay: Synergistic antibacterial activity against Staphylococcus aureus 1199B overexpressing norA and harboring A116E grlA mutant assessed as four fold minimum potentiating concentration incubated in presence of ciprofloxacin by checkerboard assay; assay type: functional
Staphylococcus aureus [20] = assay: Synergistic antibacterial activity against Staphylococcus aureus 1199B overexpressing norA and harboring A116E grlA mutant assessed as fold reduction in ciprofloxacin MIC at 0.2 to 0.39 ug/ml by checkerboard assay; assay type: functional; details: dose 0.2-0.39 µg/ml
Staphylococcus aureus [21] = assay: Synergistic bactericidal activity against Staphylococcus aureus 1199B overexpressing norA and harboring A116E grlA mutant assessed as reduction in bacterial count by measuring log reduction in colony forming count per ml at 6.25 ug/ml incubated for 4 hrs in presence of ciprofloxacin at 0.25 to 1 times MIC by time kill assay; assay type: functional; details: dose 6.25 µg/ml
Staphylococcus aureus [22] = assay: Potentiation of ciprofloxacin-induced antibacterial activity against Staphylococcus aureus 1199B overexpressing norA and harboring A116E grlA mutant assessed as post-antibiotic effect by measuring log reduction in colony forming unit per ml at 6.25 ug/ml preincubated for 1 hr followed by compound washout and measured after 5 hrs; assay type: functional; details: dose 6.25 µg/ml
Staphylococcus aureus [23] = assay: Potentiation of ciprofloxacin-induced antibacterial activity against Staphylococcus aureus 1199B overexpressing norA and harboring A116E grlA mutant assessed as time for post-antibiotic effect at 6.25 ug/ml preincubated for 1 hr followed by compound washout and measured after 5 hrs; assay type: functional; details: dose 6.25 µg/ml
Staphylococcus aureus [24] = assay: Synergistic bactericidal activity against Staphylococcus aureus 1199B overexpressing norA and harboring A116E grlA mutant assessed as reduction in bacterial count at 6.25 ug/ml incubated for 6 hrs in presence of ciprofloxacin at MIC by time kill assay; assay type: functional, organism-based; details: dose 6.25 µg/ml
Staphylococcus aureus [25] = assay: Synergistic antibiofilm activity against norA deleted Staphylococcus aureus K1902 assessed as biofilm eradication by measuring ciprofloxacin MBEC at 3.13 ug/ml incubated for 24 hrs by Calgary biofilm device assay; assay type: functional; details: dose 3.13 µg/ml

Compound	MBEC (Staphylococcus aureus [1]) [µg/mL]	inhibition (Staphylococcus aureus [2]) [%]	inhibition (Staphylococcus aureus [3]) [%]	MIC (Staphylococcus aureus [4]) [µg/mL]	MBEC (Staphylococcus aureus [5]) [µg/mL]	MPC (Staphylococcus aureus [6]) [µg/mL]	MIC (Staphylococcus aureus [7])	fold change (FC) (Staphylococcus aureus [8])	other results
CCCOc1ccc(-c2cc(OCCN3CCCCC3)c3cc(C(F)(F)F)ccc3n2)cc1	0.07	87.4	70.1	> 50	>50	3.13	> 50 µg/mL and > 545 µM	8	–
CCCOc1ccc(-c2cc(OCCN3CCCCCC3)c3cc(Br)ccc3n2)cc1	–	76.4	–	–	–	–	–	–	–
CCCOc1ccc(-c2cc(OCCN3CCCCCC3)c3cc(Oc4ccccc4)ccc3n2)cc1	–	83	66.8	–	–	–	> 503 µM	–	–
CCCOc1ccc(-c2cc(OCCN3CCCCC3)c3cc(SC)ccc3n2)cc1	–	79.9	80.2	> 50	–	6.25	> 50 µg/mL and 71.7 µM	>=8	–
CCCOc1ccc(-c2cc(OCCN3CCCCC3)c3cc(Oc4ccccc4)ccc3n2)cc1	0.07	84.1	65.6	> 50	1.25	1.56	> 50 µg/mL and > 518 µM	8	viability at 24 h, 12.5 ug/ml [9]: 21.8%; MIC (Staphylococcus aureus [10]): > 50 µg/mL; CC50 at 24 h [11]: > 3.13 µg/mL; fold change (FC) (Staphylococcus aureus [12]): 512; viability at 24 h, 12.5 ug/ml [13]: 100%; fold change (FC) (Staphylococcus aureus [14]): 286; viability at 24 h, 3.13 ug/ml [15]: 100%; fold change (FC) (Staphylococcus aureus [16]): 4; viability at 24 h, 3.13 ug/ml [17]: 87.9%; MIC (Staphylococcus aureus [18]): > 50 µg/mL
CCCOc1ccc(-c2cc(OCCN(CC)CC)c3cc(OC(F)(F)F)ccc3n2)cc1	–	83	69.2	–	–	–	> 541 µM	–	–
CCCOc1ccc(-c2cc(OCCN(CC)CC)c3cc(OCCC)ccc3n2)cc1	–	67.1	–	–	–	–	–	–	–
CCCOc1ccc(-c2cc(OCCN3CCCCC3)c3cc(OC)ccc3n2)cc1	0.07	97.6	–	–	2.5	1.56	238 µM (≈ 100 µg/mL)	–	fold change (FC) (Staphylococcus aureus [14]): 286; MPC (Staphylococcus aureus [19]): 0.78 µg/mL; fold change (FC) (Staphylococcus aureus [20]): 2
CCCOc1ccc(-c2cc(OCCN3CCCCC3)c3cc(Br)ccc3n2)cc1	–	71.6	–	–	–	–	–	–	–
CCCOc1ccc(-c2cc(OCCN(CC)CC)c3cc(OC(F)F)ccc3n2)cc1	–	71.9	–	–	–	–	–	–	–
CCCOc1ccc(-c2cc(OCCN3CCCCCC3)c3cc(SC)ccc3n2)cc1	0.07	81.2	81.1	> 50	1.25	1.56	> 50 µg/mL and 69.5 µM	8	viability at 24 h, 12.5 ug/ml [9]: 19.9%; MIC (Staphylococcus aureus [10]): > 50 µg/mL; CC50 at 24 h [11]: > 3.13 µg/mL; fold change (FC) (Staphylococcus aureus [12]): 512; viability at 24 h, 12.5 ug/ml [13]: 100%; fold change (FC) (Staphylococcus aureus [14]): 286; viability at 24 h, 3.13 ug/ml [15]: 100%; fold change (FC) (Staphylococcus aureus [16]): 4; viability at 24 h, 3.13 ug/ml [17]: 68.8%; MIC (Staphylococcus aureus [18]): > 50 µg/mL
CCCOc1ccc(-c2cc(OCCN3CCCCCC3)c3cc(OC(F)F)ccc3n2)cc1	–	70.7	–	–	–	–	–	–	–
CCCOc1ccc(-c2cc(OCCN3CCCCC3)c3cc(OCCC)ccc3n2)cc1	–	73.9	–	–	–	–	–	–	–
CCCOc1ccc(-c2cc(OCCN3CCCCC3)c3cc(OC(F)F)ccc3n2)cc1	0.07	80.2	85	> 50	0.63	0.78	> 50 µg/mL and > 548 µM	>=8	viability at 24 h, 12.5 ug/ml [9]: 9.4%; MIC (Staphylococcus aureus [10]): 25 µg/mL (≈ 54.8 µM); CC50 at 24 h [11]: > 3.13 µg/mL; log(activity) (Staphylococcus aureus [21]): 3; fold change (FC) (Staphylococcus aureus [12]): 512; viability at 24 h, 12.5 ug/ml [13]: 100%; fold change (FC) (Staphylococcus aureus [14]): 286; MPC (Staphylococcus aureus [19]): 0.39 µg/mL; viability at 24 h, 3.13 ug/ml [15]: 100%; log(activity) (Staphylococcus aureus [22]): 1; Time (Staphylococcus aureus [23]): 1.2 h; fold change (FC) (Staphylococcus aureus [16]): 4; Activity (Staphylococcus aureus [24]): Active; viability at 24 h, 3.13 ug/ml [17]: 67.7%; MBEC (Staphylococcus aureus [25]): 40 µg/mL; MIC (Staphylococcus aureus [18]): 25 µg/mL (≈ 54.8 µM)
CCCOc1ccc(-c2cc(OCCN3CCCCCC3)c3cc(OC(F)(F)F)ccc3n2)cc1	–	84.9	70.4	–	–	–	> 512 µM	–	–
